target: T1, PTK2 (Homo sapiens, UniProt Q05397); test: PTK2 enzyme test, Assay 1 (DELFIA, PT60 antibody); type: biochemical; settings: 1 h pre-incubation, 1 h kinase reaction, values without *
T1 construct: purchased Invitrogen PV3832
Protocol: This test uses active PTK2 enzyme (Invitrogen Code PV3832) and poly-Glu-Tyr (4:1, Sigma P-0275) as the kinase substrate. The kinase activity is detected through the phosphorylation of the substrate in a DELFIA™ assay. The phosphorylated substrate is detected with the europium-labelled phosphotyrosine antibody PT60 (Perkin Elmer, No.: AD00400).
In order to determine concentration-activity curves with PTK2-inhibitors the compounds are serially diluted in 10% DMSO/H20 and 10 μL of each dilution are placed in each well of a 96-well microtitre plate (clear plate with a U-shaped base, Greiner No. 650101) (the inhibitors are tested in duplicates) and mixed with 10 μL/well of PTK2 kinase (0.01 μg/well). PTK2 kinase has been correspondingly diluted beforehand with kinase dilution buffer (20 mM TRIS/HCl pH 7.5, 0.1 mM EDTA, 0.1 mM EGTA, 0.286 mM sodium orthovanadate, 10% glycerol with the addition of freshly prepared BSA (fraction V, 1 mg/mL) and DTT (1 mM)). The test compound and the PTK2 kinase are pre-incubated for 1 h at RT and shaken at 500 revolutions per min. The reaction is started by the addition of 10 μL/well poly (Glu,Tyr) substrate (25 μg/well poly (Glu, Tyr), 0.05 μg/well biotinylated poly (Glu,Tyr) dissolved in 250 mM TRIS/HCl pH 7.5, 9 mM DTT)—the final concentration of DMSO is 2%. Then 20 μL of ATP Mix (30 mM TRIS/HCl pH 7.5, 0.02% Brij, 0.2 mM sodium orthovanadate, 10 mM magnesium acetate, 0.1 mM EGTA, 1× phosphatase inhibitor cocktail 1 (Sigma, No.: P2850), 50 μM ATP (Sigma, No.: A3377; 15 mM stock solution)) are added. After 1 h of kinase reaction (the plates are shaken at 500 rpm), the reaction is stopped by the addition of 12 μL/well 100 mM EDTA, pH 8.0 and shaken for a further 5 min at RT (500 rpm). 55 μL of the reaction mixture are transferred into a streptavidin plate (Strepta Well High Bind (transparent, 96-well) made by Roche, No.: 11989685001) and incubated for 1 h at RT (shaking at 500 rpm). Then the microtitre plate is washed three times with 200 μL/well D-PBS (Invitrogen, No. 14190). 100 μL of a solution containing DELFIA Eu-N1 Anti-Phosphotyrosine PT60 antibody (Perkin Elmer, No.: AD0040, diluted 1:2000 in DELFIA test buffer (Perkin Elmer, No.: 1244-111)) is then added and the mixture is incubated for 1 h at RT (shaking at 500 rpm). Then the plate is washed three times with 200 μL/well DELFIA washing buffer (Perkin Elmer, No.: 1244-114), 200 μL/well strengthening solution (Perkin Elmer, No.: 1244-105) are added and the mixture is incubated for 10 min at RT (shaking at 300 rpm).
The time-delayed europium fluorescence is then measured in a microtitre plate reader (VICTOR^3, Perkin Elmer). […] Wells that contain test buffer instead of enzyme are used as a control of the background kinase activity.
The IC50 values are determined from analyses of the concentration activity by iterative calculation with the aid of a sigmoid curve analysis algorithm (FIFTY, based on GraphPAD Prism Version 3.03) with a variable Hill coefficient.

T1 sequence (Q05397 whole entry): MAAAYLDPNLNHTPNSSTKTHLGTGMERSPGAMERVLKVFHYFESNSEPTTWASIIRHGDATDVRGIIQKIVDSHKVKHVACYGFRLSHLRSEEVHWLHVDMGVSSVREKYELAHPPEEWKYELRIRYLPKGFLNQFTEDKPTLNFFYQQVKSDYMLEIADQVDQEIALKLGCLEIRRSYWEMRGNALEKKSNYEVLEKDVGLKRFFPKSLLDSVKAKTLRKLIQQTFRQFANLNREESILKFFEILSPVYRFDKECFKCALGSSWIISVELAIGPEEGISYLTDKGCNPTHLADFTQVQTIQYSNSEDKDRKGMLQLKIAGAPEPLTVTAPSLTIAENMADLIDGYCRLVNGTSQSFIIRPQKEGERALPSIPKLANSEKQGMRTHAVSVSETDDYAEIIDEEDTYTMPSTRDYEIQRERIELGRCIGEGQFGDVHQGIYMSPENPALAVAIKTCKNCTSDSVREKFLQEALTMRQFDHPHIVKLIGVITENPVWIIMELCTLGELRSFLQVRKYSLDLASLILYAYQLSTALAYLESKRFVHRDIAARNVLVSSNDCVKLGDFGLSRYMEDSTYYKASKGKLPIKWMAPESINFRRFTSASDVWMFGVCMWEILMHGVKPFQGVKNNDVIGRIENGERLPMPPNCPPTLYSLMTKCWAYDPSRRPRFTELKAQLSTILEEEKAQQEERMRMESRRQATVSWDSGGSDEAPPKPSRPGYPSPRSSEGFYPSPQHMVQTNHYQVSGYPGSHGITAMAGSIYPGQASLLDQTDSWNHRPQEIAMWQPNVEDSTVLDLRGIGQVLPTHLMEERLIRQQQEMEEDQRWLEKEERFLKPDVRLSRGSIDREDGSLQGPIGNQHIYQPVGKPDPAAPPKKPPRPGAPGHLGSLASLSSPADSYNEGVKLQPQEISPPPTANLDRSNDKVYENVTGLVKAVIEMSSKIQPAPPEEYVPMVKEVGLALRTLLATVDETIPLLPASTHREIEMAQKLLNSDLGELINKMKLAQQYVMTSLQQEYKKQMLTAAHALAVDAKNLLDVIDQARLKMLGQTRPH

Row | IC50 [nM] | Compound
1 | 19 | COc1cc(C(=O)NCC2CC2)c(F)cc1Nc1ncc(C(F)(F)F)c(O[C@@H]2Cc3ccccc3[C@H]2N(C)S(C)(=O)=O)n1 [Example 9]
2 | 17 | CNC(=O)c1cc(OC)c(Nc2ncc(C(F)(F)F)c(O[C@@H]3Cc4ccccc4[C@H]3N(C)S(C)(=O)=O)n2)cc1F [Example 6]
3 | 5 | COc1cc(C(=O)NCCN(C)C)c(F)cc1Nc1ncc(C(F)(F)F)c(O[C@@H]2Cc3ccccc3[C@H]2N(C)S(C)(=O)=O)n1 [Example 2]
4 | 3 | COc1cc(C(=O)NCCN(C)C)c(Cl)cc1Nc1ncc(Cl)c(O[C@@H]2Cc3ccccc3[C@H]2N(C)S(C)(=O)=O)n1 [Example 40]
5 | 16 | CNC(=O)c1cc(OC)c(Nc2ncc(Cl)c(O[C@@H]3Cc4ccccc4[C@H]3N(C)S(C)(=O)=O)n2)cc1F [Example 67]
6 | 12 | COc1cc(C(=O)NCC2CC2)ccc1Nc1ncc(C(F)(F)F)c(O[C@@H]2Cc3ccccc3[C@H]2N(C)S(C)(=O)=O)n1 [Example 21]
7 | 3 | COc1cc(C(=O)NCCN(C)C)ccc1Nc1ncc(C(F)(F)F)c(O[C@@H]2Cc3ccccc3[C@H]2N(C)S(C)(=O)=O)n1 [Example 14]
8 | 0.45 | COc1cc(C(=O)NCCN(C)C)c(Cl)cc1Nc1ncc(C(F)(F)F)c(O[C@@H]2Cc3ccccc3[C@H]2NS(C)(=O)=O)n1 [Example 86]
9 | 9 | COc1cc(C(=O)NC[C@H](O)CO)c(F)cc1Nc1ncc(Cl)c(O[C@@H]2Cc3ccccc3[C@H]2N(C)S(C)(=O)=O)n1 [Example 56]
10 | 6 | COc1cc(C(=O)NC[C@@H](O)CO)c(F)cc1Nc1ncc(C(F)(F)F)c(O[C@@H]2Cc3ccccc3[C@H]2N(C)S(C)(=O)=O)n1 [Example 64]
11 | 13 | CNC(=O)c1ccc(Nc2ncc(C(F)(F)F)c(O[C@@H]3Cc4ccccc4[C@H]3N(C)S(C)(=O)=O)n2)c(OC)c1 [Example 17]
12 | 2 | COc1cc(C(=O)NCCCN(C)C)c(Cl)cc1Nc1ncc(Cl)c(O[C@@H]2Cc3ccccc3[C@H]2N(C)S(C)(=O)=O)n1 [Example 41]
13 | 13 | COc1cc(C(=O)NC[C@@H](O)CO)c(F)cc1Nc1ncc(Cl)c(O[C@@H]2Cc3ccccc3[C@H]2N(C)S(C)(=O)=O)n1 [Example 51]
14 | 4 | COc1cc(C(=O)NCCN2CCN(C)CC2)c(F)cc1Nc1ncc(C(F)(F)F)c(O[C@@H]2Cc3ccccc3[C@H]2N(C)S(C)(=O)=O)n1 [Example 5]
15 | 3 | COc1cc(C(=O)NC[C@H](O)CO)c(Cl)cc1Nc1ncc(Cl)c(O[C@@H]2Cc3ccccc3[C@H]2N(C)S(C)(=O)=O)n1 [Example 36]

Continued, compound first:

Row | Compound | IC50 [nM]
16 | COc1cc(C(=O)N[C@H]2CC[C@H](N3CCN(CC4CC4)CC3)CC2)c(F)cc1Nc1ncc(C(F)(F)F)c(O[C@@H]2Cc3ccccc3[C@H]2N(C)S(C)(=O)=O)n1 [Example 7] | 8
17 | COc1cc(C(=O)NC2CCN(C)CC2)c(F)cc1Nc1ncc(Cl)c(O[C@@H]2CCC[C@H]2N(C)S(C)(=O)=O)n1 [Example 85, 4-{5-chloro-4-[(1R,2R)-2-(methanesulphonyl-methyl-amino)-cyclopentyloxy]-pyrimidin-2-ylamino}-2-fluoro-5-methoxy-N-(1-methyl-piperidin-4-yl)-benzamide] | 0.37
18 | COc1cc(C(=O)NN2CCN(C)CC2)c(Cl)cc1Nc1ncc(C(F)(F)F)c(O[C@@H]2CCC[C@H]2N(C)S(C)(=O)=O)n1 [Example 100, 2-chloro-4-{4-[(1R,2R)-2-(methanesulphonyl-methyl-amino)-cyclopentyloxy]-5-trifluoromethyl-pyrimidin-2-ylamino}-5-methoxy-N-(4-methyl-piperazin-1-yl)-benzamide] | 0.26
19 | COc1cc(C(=O)NC2CCN(C)CC2)ccc1Nc1ncc(C(F)(F)F)c(O[C@@H]2Cc3ccccc3[C@H]2N(C)S(C)(=O)=O)n1 [Example 27, 4-{4-[(1R,2R)-1-(methanesulphonyl-methyl-amino)-indan-2-yloxy]-5-trifluoromethyl-pyrimidin-2-ylamino}-3-methoxy-N-(1-methyl-piperidin-4-yl)-benzamide] | 1
20 | COc1cc(C(=O)NCCN(C)C)c(F)cc1Nc1ncc(C(F)(F)F)c(O[C@@H]2CCCC[C@H]2N(C)S(C)(=O)=O)n1 [Example 110] | 0.35
21 | COc1cc(C(=O)NCCn2ccnc2C)ccc1Nc1ncc(C(F)(F)F)c(O[C@@H]2Cc3ccccc3[C@H]2N(C)S(C)(=O)=O)n1 [Example 13] | 4
22 | COc1cc(C(=O)NC2CCN(C)CC2)ccc1Nc1ncc(C(F)(F)F)c(O[C@@H]2Cc3ccccc3[C@@H]2N(C)S(C)(=O)=O)n1 [Example 69] | 42
23 | COc1cc(C(=O)NCCN2CCN(C)CC2)ccc1Nc1ncc(C(F)(F)F)c(O[C@@H]2Cc3ccccc3[C@H]2N(C)S(C)(=O)=O)n1 [Example 16] | 4
24 | COc1cc(C(=O)NC2CCN(C)CC2)c(Cl)cc1Nc1ncc(Cl)c(O[C@@H]2CCC[C@H]2N(C)S(C)(=O)=O)n1 [Example 84, 2-chloro-4-{5-chloro-4-[(1R,2R)-2-(methanesulphonyl-methyl-amino)-cyclopentyloxy]-pyrimidin-2-ylamino}-5-methoxy-N-(1-methyl-piperidin-4-yl)-benzamide] | 0.32
25 | COc1cc(C(=O)NC2CCN(C)CC2)ccc1Nc1ncc(C(F)(F)F)c(O[C@H]2Cc3ccccc3[C@H]2N(C)S(C)(=O)=O)n1 [Example 70] | 238
26 | COc1cc(C(=O)NC2CCN(C)CC2)ccc1Nc1ncc(C(F)(F)F)c(O[C@@H]2Cc3ccccc3[C@@H]2NC(C)=O)n1 [Example 72] | 174
27 | COc1cc(C(=O)N[C@H]2CC[C@H](N3CCN(CC4CC4)CC3)CC2)ccc1Nc1ncc(C(F)(F)F)c(O[C@@H]2Cc3ccccc3[C@H]2N(C)S(C)(=O)=O)n1 [Example 18] | 4
28 | COc1cc(C(=O)NC2CCN(C)CC2)c(Cl)cc1Nc1ncc(C(F)(F)F)c(O[C@@H]2CCC[C@H]2NS(=O)(=O)CCl)n1 [Example 47] | 3
29 | COc1cc(C(=O)NN2CCN(C)CC2)c(F)cc1Nc1ncc(Cl)c(O[C@@H]2CCC[C@H]2N(C)S(C)(=O)=O)n1 [Example 88, 4-{5-chloro-4-[(1R,2R)-2-(methanesulphonyl-methyl-amino)-cyclopentyloxy]-pyrimidin-2-ylamino}-2-fluoro-5-methoxy-N-(4-methyl-piperazin-1-yl)-benzamide] | 0.37
30 | COc1cc(C(=O)NC2CCN(C)CC2)ccc1Nc1ncc(C(F)(F)F)c(O[C@@H]2Cc3ccccc3[C@H]2NC(C)=O)n1 [Example 68, 4-[4-((1R,2R)-1-acetylamino-indan-2-yloxy)-5-trifluoromethyl-pyrimidin-2-ylamino]-3-methoxy-N-(1-methyl-piperidin-4-yl)-benzamide] | 2
31 | Cc1nc2ccc(Nc3ncc(C(F)(F)F)c(O[C@@H]4CCC[C@H]4NS(C)(=O)=O)n3)cc2o1 [Example 83] | 1
32 | COc1cc(C(=O)NCC(O)CO)ccc1Nc1ncc(C(F)(F)F)c(O[C@@H]2Cc3ccccc3[C@H]2N(C)S(C)(=O)=O)n1 (stereo partly shown) [Example 12] | 4
33 | COc1cc(C(=O)NCCN(C)C)c(Cl)cc1Nc1ncc(C(F)(F)F)c(O[C@@H]2CCC[C@H]2NS(C)(=O)=O)n1 [Example 78] | 0.37
34 | COc1cc(C(=O)NC2CCN(C)CC2)c(Cl)cc1Nc1ncc(C(F)(F)F)c(O[C@@H]2CCC[C@H]2NS(=O)(=O)C2CC2)n1 [Example 48] | 22
35 | COc1cc(C(=O)NC2CCN(C)CC2)c(Cl)cc1Nc1ncc(C(F)(F)F)c(O[C@@H]2Cc3ccccc3[C@H]2NS(C)(=O)=O)n1 [Example 87] | 0.28
36 | COc1cc(C(=O)NN2CCN(C)CC2)ccc1Nc1ncc(C(F)(F)F)c(O[C@@H]2CCC[C@H]2NS(C)(=O)=O)n1 [Example 73] | 2
37 | COc1cc(C(=O)NC2CCN(C)CC2)c(F)cc1Nc1ncc(C(F)(F)F)c(O[C@@H]2CCCC[C@H]2N(C)S(C)(=O)=O)n1 [Example 75, 2-fluoro-4-{4-[(1R,2R)-2-(methanesulphonyl-methyl-amino)-cyclohexyloxy]-5-trifluoromethyl-pyrimidin-2-ylamino}-5-methoxy-N-(1-methyl-piperidin-4-yl)-benzamide] | 0.31
